The record followed here is a melting point compilation (Tetko et al.; mined from patent text by program, amines drawn as free bases though some values may be those of a salt).

SMILES strings stand for the structures.

In general, melting point refers to the temperature, or range, at which the solid turns liquid. As to `NC(=O)/C=C/c1cnoc1-c1ccccc1`, the melting point fell in the range of 194 to 196 °C.

Turning to `CCCCc1c2ccccc2cc2ccccc12`, the melting point turned out to be 49 °C.

As for `COc1ccc2c(c1)CCC(CN1CCC3(CC1)C(=O)NCN3c1ccccc1)C2=O` (stereo not drawn), the melting point lay within 177 to 179 °C.

The compound `CNC(=O)c1ccc(-c2cnc3oc(=O)n(Cc4cccc(OC)c4)c3n2)cc1` registered a melting point of 168 to 169 °C.

`COC(C(=O)O)c1nn(-c2ccc(Br)cc2)c2c1CCCC2` (stereo not drawn) came in with a melting point of 123 °C.

For `O=[N+]([O-])c1ccc(C2OCCO2)nc1`, the melting point fell in the range of 104 to 105 °C.

In the case of `CNC(=O)c1c(-c2ccccc2)noc1CC(=O)c1ccccc1`, the melting point lay within 125 to 128 °C.

In turn, `COc1cc(OCc2ccccn2)ccc1/C=C/c1cc(/C=C/c2ccc3[nH]cnc3c2)n[nH]1` gave a melting point of 135 to 142 °C.

With `O=C1c2cc(OCc3ccc4cc(F)ccc4n3)ccc2OCC1Oc1cccnc1` (stereo not drawn), the melting point was determined as 188 °C.

Compound `CCOC(=O)N(C)S(=O)(=O)c1cc2c(c(Cl)c1Cl)OC(C(=O)O)C2` (stereo not drawn) gave a melting point of 199 to 201 °C.

Compound `NC(=O)c1ncn2c1[C@@H]1CCN1C(=O)c1c(Br)cccc1-2` displayed a melting point of 314 to 317 °C.

Turning to `CC(C)(C)OC(=O)N[C@@H](CC1CCCCC1)[C@@H](O)[C@@H](O)C1CC1`, the melting point was in the range of 83 to 85 °C.

Regarding `O=Cc1ccc2c(c1)C=C(C(=O)O)C(C(F)(F)F)O2` (stereo not drawn), the melting point lay in the range of 211 to 216 °C.

Compound `N#Cc1c(N2CCc3ccccc3CC2)nc[nH]c1=O` gave a melting point of 139 to 140 °C.

Take `Cc1cc(Cl)c(C(N)=O)cc1[N+](=O)[O-]`: the melting point lay in the range of 180 to 183 °C.

As for `CC(C)NC(=O)C(C)(C)C`, the melting point was 106 to 108 °C.

In turn, `CCCCC(CCCC)(CC(=O)Nc1cccc(OCc2ccc3ccc(F)cc3n2)c1)C(=O)O` registered a melting point of 156 to 157 °C.

For `Nc1cccc(-c2cccnc2)n1`, the melting point came out at 108 °C.

`COC(=O)c1ccc2sc(C)c(Br)c2c1` displayed a melting point of 84 to 85 °C.

The compound `COC(=O)C(Cc1ccccc1)N1CC(N2C(=O)c3ccccc3C2=O)C1=O` (stereo not drawn) showed a melting point of 153 to 156 °C.

Compound `O=S=c1cc(-c2ccc(O)cc2)ss1` came in with a melting point of 118 to 124 °C.

`CCC(C)(C(=O)c1ccc(N2CCOCC2)cc1)N1CCOCC1` (stereo not drawn) registered a melting point of 111 to 114 °C.

For the compound `CCCCOCCOc1ccc(-c2ccc(N3CCOCC3)c(C=CC(=O)O)c2)cc1`, the melting point is 155 to 157 °C.

In the case of `CC(C)(C)c1ccc(N2C(=O)CCC2=O)c([N+](=O)[O-])c1`, the melting point lay within 135 to 138 °C.

For `CN1C(=O)C2CC2(c2ccc([N+](=O)[O-])cc2)C1=O` (stereo not drawn), the melting point was in the range of 148 to 150 °C.

In turn, `Nc1cc(-n2cc(C(=O)O)c(=O)c3cc(F)c(F)c(Cl)c32)c(Cl)cc1F` returned a melting point of 237 to 242 °C.

Compound `O=C(O)CCSC(c1ccccc1)(c1ccccc1)c1ccccc1` returned a melting point of 205 to 208 °C.

In the case of `CN1CCC(=C2c3ccccc3C=Cc3ccc(C(=O)OCN4C(=O)CN(C)C4=O)cc32)CC1`, the melting point lay in the range of 188 to 189 °C.

For `CC1=Cc2cc(Br)cc(S(N)(=O)=O)c2OS1(=O)=O`, the melting point is 243 to 245 °C.

For the compound `O=c1[nH]c2ccc(S(=O)CCN3CCC(Cc4ccc(F)cc4F)CC3)cc2o1` (stereo not drawn), the melting point fell in the range of 166 to 168 °C.

Take `Cc1cnc2c(-c3nc[nH]n3)c(Cl)ccc2c1`: the melting point lay within 274 to 276 °C.

Consider `CNC1CCc2[nH]c3cccc(C)c3c2C1` (stereo not drawn), for which the melting point lay in the range of 163 to 166 °C.

Compound `FC(F)(F)Oc1ccc2nc(Cc3cn4ccsc4n3)[nH]c2c1` displayed a melting point of 177 to 179 °C.

Compound `O=c1[nH]nnn1-c1ccc(Cl)cc1F` showed a melting point of 185 to 187 °C.

Turning to `CCOC(=O)C=Cc1ccc(-n2ccnc2)cc1`, the melting point fell in the range of 96 to 97.5 °C.

Turning to `Cc1[nH]c(=O)c(C#N)cc1-c1csc(N)n1`, the melting point lay in the range of 294 to 296 °C.

On to `Clc1ccc(NC2CCC3(CCNCC3)CC2)cc1Cl`, for which the melting point is 128 to 132 °C.

Consider `COc1cc(NC(=O)c2ccccn2)ccc1Oc1ncccn1`, for which the melting point lay within 203 to 205 °C.
